Laboratory results as given in ChEMBL document CHEMBL4706556, “Unraveling the anti-influenza effect of flavonoids: Experimental validation of luteolin and its congeners as potent influenza endonuclease inhibitors” (Eur J Med Chem, 2020).
Structures can show the parent of a compound that is named as a salt. Calls of active or inactive are those of the source. The calls are words filed in the database; no cut-off is given here.

Columns and labels:
[1] = test system: Influenza A virus (A/California/07/2009(H1N1)); assay: Inhibition of Influenza A virus (A/California/07/2009(H1N1)) neuraminidase at 400 uM by DNA-linked inhibitor antibody assay
[2] = Inhibition of biotinylated 5-(4-((Z)-3-Carboxy-3-hydroxyacryloyl)-4-(4-chlorobenzyl)piperidine-1-carbonyl)-2-((13,35-dioxo-39-((3aR,4R,6aS)-2-oxohexahydro-1H-thieno[3,4-d]imidazole-4-yl)-3,6,9,16,19,22,25,28,31-nonaoxa-12,34-diazanonatriacontyl)oxy)benzoic acid binding to Influenza A virus (A/California/07/2009(H1N1)) N-terminal GST-tagged polymerase acidic subunit N-terminal domain expressed in Escherichia coli BL21 (DE3) RIL cells measured after 120 mins by Alphascreen assay
[3] = test system: Influenza A virus (A/California/07/2009(H1N1)); assay: (§1) Inhibition of endonuclease activity of Influenza A virus (A/California/07/2009(H1N1)) N-terminal GST-tagged polymerase acidic subunit N-terminal domain expressed in Escherichia coli BL21 (DE3) RIL cells using single-stranded circular DNA M13mp18 as substrate measured after 4 hrs by GelRed-staining based agarose gel electrophoresis
[4] = Inhibition of Influenza A virus (A/California/07/2009(H1N1)) neuraminidase by DNA-linked inhibitor antibody assay
[5] = test system: Influenza A virus (A/California/07/2009(H1N1)); assay: as §1, with “cells at 0.01 to 100 uM” for “cells”; conditions: dose 0.01-100 µM

| SMILES | IC50 [2] [µM] | further results |
| --- | --- | --- |
| O=c1cc(-c2ccc(O)cc2)oc2c([C@@H]3O[C@H](CO)[C@@H](O)[C@H](O)[C@H]3O)c(O)cc(O)c12 [VITEXIN] | 1.9 | inhibition [1]: inactive |
| O=C(c1ccc(O)c(O)c1)C1(O)Oc2cc(O)cc(O)c2C1=O (stereo not drawn) | 9.8 | – |
| COc1ccc(/C=C/C(=O)/C=C(O)/C=C/c2ccc(OC)c(OC)c2)cc1OC [DIMETHYLCURCUMIN] | > 50 | – |
| Oc1ccc(C2CNCCc3c2cc(O)c(O)c3Cl)cc1 (stereo not drawn) [FENOLDOPAM MESYLATE] | 31 | – |
| COc1cc(OC)c2c(=O)c(OC)c(-c3ccc(OC)c(OC)c3)oc2c1 | > 50 | – |
| Oc1cc(O)c2c(c1)O[C@H](c1ccc(O)c(O)c1)[C@H](O)C2 [(-)-EPICATECHIN] | > 50 | – |
| COc1cc(OC)c2c(=O)cc(-c3cc(OC)c(OC)c(OC)c3)oc2c1 | 1.8 | – |
| COc1cc([C@@H]2Oc3c(O)cc([C@H]4Oc5cc(O)cc(O)c5C(=O)[C@@H]4O)cc3[C@H]2CO)ccc1O [SILICRISTIN A] | > 50 | – |
| O=c1cc(-c2ccc(O)c(O)c2)oc2cccc(O)c12 | 1.3 | – |
| O=c1c(O)c(-c2ccc(O)c(O)c2)[nH]c2cc(O)cc(O)c12 | 0.2 | – |
| O=C1C=C(O)C(=O)c2c(O)c(O)cc(O)c21 | 0.43 | – |
| CCn1cc(C(=O)O)c(=O)c2ccc(C)nc21 [NALIDIXIC ACID] | > 50 | – |
| O=c1cc(-c2ccc(O)c(O)c2)oc2cc(O)c([C@@H]3O[C@H](CO)[C@@H](O)[C@H](O)[C@H]3O)c(O)c12 [ISOORIENTIN] | > 50 | – |
| O=C(O)/C(O)=C/C(=O)C1(Cc2ccc(Cl)cc2)CCN(Cc2ccccc2)CC1 | 0.026 | IC50 (Influenza A virus): 0.43 µM |
| O=c1cc(-c2cccc(O)c2O)oc2cc(O)cc(O)c12 | 17 | – |
| O=C(/C=C(O)/C=C/c1ccc(O)cc1)/C=C/c1ccc(O)cc1 | > 50 | – |
| O=C1c2c(O)cc(O)cc2O[C@H](c2ccc(O)c(O)c2)[C@H]1O [(+)-TAXIFOLIN] | 50 | – |
| O=c1cc(-c2ccc(O)c(O)c2)oc2c([C@@H]3O[C@H](CO)[C@@H](O)[C@H](O)[C@H]3O)c(O)cc(O)c12 [ORIENTIN] | 0.043 | – |
| O=c1c(O)cccc2cc(O)c(O)c(O)c12 [PURPUROGALLIN] | 1.5 | – |
| O=C(NC(O)C(=O)O)c1ccccc1 (stereo not drawn) | > 50 | – |

| SMILES | IC50 [2] [µM] | further results |
| --- | --- | --- |
| O=C1c2c(O)c(=O)ccn2N([C@@H]2c3ccccc3SCc3c2ccc(F)c3F)[C@@H]2COCCN12 [BALOXAVIR] | 0.024 | – |
| COc1cc([C@H]2Oc3cc([C@H]4Oc5cc(O)cc(O)c5C(=O)[C@@H]4O)ccc3O[C@@H]2CO)ccc1O [SILYBIN A] | > 50 | – |
| O=c1cc(-c2ccc(O)cc2)oc2cc(O)cc(O)c12 [APIGENIN] | > 50 | – |
| O=C(/C=C(O)/C=C/c1ccc(O)c(O)c1)/C=C/c1ccc(O)c(O)c1 | 1.7 | inhibition [1]: inactive; inhibition [3]: Active |
| O=c1cc(-c2ccccc2O)oc2cc(O)cc(O)c12 | > 50 | – |
| Oc1cc(O)c2c(c1)O[C@H](c1ccc(O)c(O)c1)[C@@H](O)C2 [CIANIDANOL] | 42 | – |
| O=c1cc(-c2ccc(O)c(O)c2)[nH]c2cc(O)cc(O)c12 | – | inhibition [3]: Active |
| O=C1c2c(O)cc(O)cc2O[C@H](c2cc(O)c(O)c(O)c2)[C@H]1O [AMPELOPSIN] | 22 | – |
| O=c1cc(-c2cc(O)c(O)c(O)c2)oc2cc(O)cc(O)c12 [TRICETIN] | 0.16 | – |
| O=c1c(O)c(-c2ccc(O)cc2)oc2cc(O)cc(O)c12 [KAEMPFEROL] | 16 | – |
| COc1c(O)cc2oc(-c3ccc(O)c(O)c3)cc(=O)c2c1O [EUPAFOLIN] | 0.93 | – |
| COc1ccc(-c2cc(=O)c3c(O)cc(O)cc3o2)cc1O [DIOSMETIN] | > 50 | – |
| C[C@@H]1O[C@@H](Oc2c(-c3cc(O)c(O)c(O)c3)oc3cc(O)cc(O)c3c2=O)[C@H](O)[C@H](O)[C@H]1O | 1.8 | – |
| O=c1c(O)c(-c2cc(O)c(O)c(O)c2)oc2cc(O)cc(O)c12 [MYRICETIN] | 0.76 | inhibition [1]: inactive; inhibition [3]: Active |
| O=c1c(O)c(-c2ccc(O)c(O)c2)oc2cc(O)ccc12 [FISETIN] | 0.96 | – |
| Oc1cc(O)c2c(c1)O[C@@H](c1ccc(O)c(O)c1)[C@H](O)C2 [(-)-CATECHIN] | > 50 | – |
| O=c1oc(-c2ccc(O)c(O)c2)cc2cccc(O)c12 [THUNBERGINOL A] | 1.4 | – |
| CCC(CC)O[C@@H]1C=C(C(=O)O)C[C@H](N)[C@H]1NC(C)=O [OSELTAMIVIR CARBOXYLATE] | – | Ki [4]: 0.039 µM |
| O=C1C[C@@H](c2ccc(O)c(O)c2)Oc2cc(O)cc(O)c21 [ERIODICTYOL] | 18 | – |
| O=c1cc(-c2ccc(O)c(O)c2)oc2cc(O)cc(O)c12 [LUTEOLIN] | 0.072 | inhibition [1]: inactive; inhibition [3]: Active |

| SMILES | IC50 [2] [µM] | further results |
| --- | --- | --- |
| O=c1cc(-c2ccc(O)c(O)c2)oc2ccccc12 | 2.4 | – |
| O=c1c(O)c(-c2ccc(O)cc2O)oc2cc(O)cc(O)c12 [MORIN] | 9 | – |
| O=C(O[C@@H]1Cc2c(O)cc(O)cc2O[C@@H]1c1cc(O)c(O)c(O)c1)c1cc(O)c(O)c(O)c1 [EPIGALOCATECHIN GALLATE] | 0.87 | inhibition [1]: inactive; inhibition [3]: Active |
| Oc1cc(O)c2c(c1)O[C@H](c1cc(O)c(O)c(O)c1)[C@H](O)C2 [EPIGALLOCATECHIN] | 3.3 | – |
| COc1cc(/C=C/C(=O)CC(=O)/C=C/c2ccc(O)c(OC)c2)ccc1O [CURCUMIN] | 25 | – |
| O=c1c(O)c(-c2ccc(O)c(O)c2)oc2cc(O)cc(O)c12 [QUERCETIN] | 0.67 | inhibition [1]: inactive; inhibition [5]: Active |
| O=c1c(O[C@@H]2OC[C@H](O)[C@H](O)[C@H]2O)c(-c2ccc(O)c(O)c2)oc2cc(O)cc(O)c12 [GUAJAVERIN] | 17 | – |
| CC(C)=CCC1=C(O)C(=O)c2ccccc2C1=O [LAPACHOL] | 19 | – |
| O=c1c(-c2ccc(O)cc2)coc2cc(O)cc(O)c12 [GENISTEIN] | > 50 | – |
| COc1cc([C@@H]2[C@H]3CO[C@@]4(C)C(=O)[C@@H]2C=C([C@H]2Oc5cc(O)cc(O)c5C(=O)[C@@H]2O)[C@@H]34)ccc1O | > 50 | – |
| O=c1cc(-c2ccc(O)c(O)c2)oc2cc(O[C@@H]3O[C@H](CO)[C@@H](O)[C@H](O)[C@H]3O)cc(O)c12 [GALUTEOLIN] | 32 | – |
| CCCCC(=O)C1=C(O)C(=O)c2c(O)c(O)cc(O)c2C1=O | 0.29 | inhibition [1]: inactive; inhibition [3]: Active |
| COc1cc(O)c2c(=O)c(OC)c(-c3ccc(OC)c(OC)c3)oc2c1 [RETUSIN] | > 50 | – |
| Cc1cc2c(C(C)C)c(O)c(O)c(C=O)c2c(O)c1-c1c(C)cc2c(C(C)C)c(O)c(O)c(C=O)c2c1O [GOSSYPOL] | 13 | – |
| O=C(/C=C/c1ccc(O)c(O)c1)O[C@@H]1C[C@](O)(C(=O)O)C[C@@H](O)[C@H]1O [CHLOROGENIC ACID] | > 50 | inhibition [1]: inactive |
| O=c1cc(-c2cccc(O)c2)oc2cccc(O)c12 | > 50 | – |
| O=c1cc(-c2cccc(O)c2)oc2cc(O)cc(O)c12 | > 50 | – |
| O=C1N[C@@H]2C(=C[C@H](O)[C@@H](O)[C@H]2O)c2cc3c(c(O)c21)OCO3 [NARCICLASINE] | > 50 | – |
